Where no end group is shown, it is not given here.
What was measured:
[1] = CD spectroscopy, secondary structure estimation; format: physicochemical; conditions: CD in MQ water, 100 μM peptide, 25°C, Reed's estimation; for proportion of alpha helical structure: 1-mm cuvette
Experimental: CD spectra were recorded on a Jasco J‐1500 CD spectrometer (Jasco, Japan) at 25°C at a concentration of 100 μM. Peptides were dissolved in MQ water and measured using 1‐mm pathlength quartz cuvette. The secondary structure estimates were calculated on the “Protein Secondary Structure Estimation” plugin in the Spectra Manager 2.13 software by using Reed's estimation.

[2] = DLS size, PDI and zeta potential of peptide/siRNA complexes; format: physicochemical
Experimental: The physicochemical properties (nanoparticle size, polydispersity index [PDI], and zeta potential) of peptide/siLuc complexes were measured by DLS (dynamic light scattering) using the Zetasizer Nano ZS apparatus (Malvern Instruments, UK).
The size and zeta potential of peptide/siLuc particles were measured at MR30 for hPep1, hPep2, and Ctrl peptide. For hPep3, measurements were also taken at different MRs (5–35). The complexes were formulated in 50 μL at a 2 μM final siRNA concentration for size measurement. The average diameter was obtained from three technical replicates, and one measurement was set to five runs (run duration 8 s) in disposable ZEN0040 cuvettes (Malvern Instruments, UK).
To measure the zeta potential, the complexes were diluted eight times in 10 mM HEPES 7.4 buffer. The zeta potential was obtained from three technical measurements in disposable DTS1070 cuvettes (Malvern Instruments, UK) with the number of runs set to automatic. The results are shown as an average of three separate experiments (mean ± SEM). All measurements were performed at 22°C.

[3] = system: siRNA; test: Heparin displacement assay (complex stability); format: physicochemical; conditions: peptide/siRNA complexes at MR30 in MQ water, heparin at different concentrations, 15 min RT, SYBR Gold fluorescence, n = 3 in duplicates
Experimental: For the heparin displacement assay, peptide/siRNA complexes were formed in MQ water at MR30. Fifty microliters of complexes was then transferred to each well of a black 96‐well plate and mixed with 100 μL of 2X SYBR Gold dye (Thermo Fisher Scientific, USA), incubated, and then 50 μL of heparin (Sigma‐Aldrich, USA) solution with different concentrations was added. After 15 min at RT, the fluorescence was measured by Synergy Mx Microplate Reader (BioTek, USA) (ex = 495 nm, em = 537 nm) to determine the amount of accessible siRNA in the complexes. The data was normalized to the fluorescence of free siRNA (defined as 100%) and are expressed as a percentage of accessible siRNA. The results are shown as mean ± SEM of n = 3 in duplicates.

[4] = system: bovine red blood cells; test: Hemolysis (erythrocyte leakage) assay; format: cell-based; conditions: peptide alone 10 μM, 2% RBCs in HBG pH 5.5, 37°C, 1 h, absorbance 450 nm, n = 3 in triplicates
Experimental: The hemolysis experiments were carried out with bovine red blood cells (RBCs) (Håtunalab, Sweden). The cells were washed three times with HBG 7.4 and then diluted to a final concentration of 2% RBCs in HBG with noted pH. Ten microliters of peptides was added to 190 μL of cells in PCR plates and shaken at 37°C for 1 h. Then the cells were spun down at 500 × g, and 100 μL of supernatant was transferred to transparent 96‐well tissue culture plates. The absorbance of released hemoglobin was measured at 450 nm on a plate reader (Tecan Sunrise, Switzerland). As a positive control, 10% Triton X‐100 was used, while HBG served as a negative control. The percentage of hemolysis was calculated by the formula: hemolysis (%) = [(AS − AN)/(AP − AN)] × 100, where AS is the absorbance for the sample, AP for positive control, and AN for negative control. The results are shown as mean ± SEM of n = 3, done in triplicates.

[5] = cited from earlier work
Source text: Given that the differences in the peptide hydrophobicity and amphipathicity come from the number of carbons introduced by the alanine and alkenyl‐alanine side chains: three carbons for Ctrl peptide, 13 and 17 for hPep1 an ...

[6] = DLS, peptide/siLuc complexes at MR30, 2 μM siRNA, 22°C, mean of n = 3

Row | Substance | proportion of alpha helical structure [1] | random structure estimate [1] | NP size (hydrodynamic diameter) [2, 6] | zeta potential of the complexes ([2]; all tested MRs (5-35)) | zeta potential ([2]; peptide/siLuc complexes at MR30, diluted eight times in 10 mM HEPES 7.4, 22°C, mean of n = 3) | stability of the NPs against heparin (siRNA release) [3] | hemolytic (lytic) activity [4] | PDI [2, 6] | order of hydrophobicity of the peptides [5]
1 | LAKLAKAAAKLLKAAAKAL-NH2 [Ctrl] | zero | > 60% | ~ 2000 nm | stayed negative at all tested MRs | −23.7 mV | Ctrl < hPep1 < hPep2 < hPep3 | almost no activity | – | –
2 | H‐LAKLAKA{R8}AKLLKA{S5}AKAL‐NH2 [hPep1, C-terminally amidated amphipathic CPP with one octenyl- and one pentenyl-alanine] | 15% | > 60% | – | – | – | Ctrl < hPep1 < hPep2 < hPep3 | – | 0.265 | hPep1 < hPep2 < hPep3
